This assay deals with T1, APOL1 (Homo sapiens, UniProt O14791).
T1 sequence (O14791 1-398 S342G/I384M): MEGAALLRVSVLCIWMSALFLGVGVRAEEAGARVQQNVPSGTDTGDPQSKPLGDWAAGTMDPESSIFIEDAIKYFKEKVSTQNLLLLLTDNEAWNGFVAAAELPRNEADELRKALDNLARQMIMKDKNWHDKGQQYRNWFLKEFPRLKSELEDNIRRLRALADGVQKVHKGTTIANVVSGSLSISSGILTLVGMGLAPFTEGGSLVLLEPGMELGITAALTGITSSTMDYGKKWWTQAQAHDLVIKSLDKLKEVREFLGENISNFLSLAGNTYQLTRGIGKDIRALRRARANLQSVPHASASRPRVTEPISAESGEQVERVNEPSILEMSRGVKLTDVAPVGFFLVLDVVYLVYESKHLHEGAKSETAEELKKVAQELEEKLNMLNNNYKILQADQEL
Nature of the assay: MultiTox-Fluor Multiplex Cytotoxicity Assay in tet-inducible APOL1 T-REx-HEK293 cells (cell rescue, ratio of dead to live cells). Particulars: tet-inducible transgenic APOL1 T-REx-HEK293 cell lines, 50 ng/mL tet, 24 hours; read-out: IP50 (i.e., IC50 for cell proliferation). The format is cell-based. A digest of the protocol: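 T-REx-HEK293 cells with tet-inducible APOL1 were treated with compound (10 μM top, 10-point 3-fold dilution, duplicate) plus 50 ng/mL tetracycline for 24 h at 37° C, in DMEM with 2% tet-free FBS. MultiTox-Fluor protease signals gave a dead/live ratio, normalized to no tet (100% viability) and tet alone (0%).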

Consider 36 compounds from patent publication US20250171459A1, “2-METHYL-4',5'-DIHYDROSPIRO[PIPERIDINE-4,7'-THIENO[2,3-C]PYRAN] DERIVATIVES AS INHIBITORS OF APOL1 AND METHODS OF USING SAME” (Vertex Pharmaceuticals Incorporated, priority 2022, published 2025).

Some results are limits rather than exact numbers.

`C[C@H]1C[C@@]2(CCN1CCCn1cccn1)OC[C@H](O)c1cc(Cl)sc12` [Compound 815]: the IC50 was in the range of 0.5 to 1 µM. The value for `Cc1cncc(N2CCC(CN3CC[C@]4(C[C@@H]3C)OC[C@H](O)c3cc(Cl)sc34)CC2)n1` [Compound 816] was 0.5 to 1 µM.

In the case of `C[C@H]1C[C@@]2(CCN1Cc1cn[nH]c1)OCC(O)c1cc(Cl)sc12` (stereo partly drawn) [Compound 817], the IC50 was < 0.1 µM.

On to `C[C@H]1C[C@@]2(CCN1Cc1cn(CCS(C)(=O)=O)nn1)OCC(=O)c1cc(Cl)sc12` [Compound 822, (2S,4R)-2′-chloro-2-methyl-1-[[1-(2-methylsulfonylethyl)triazol-4-yl]methyl]spiro[piperidine-4,7′-thieno[2,3-c]pyran]-4′-one], for which the IC50 fell in the range of 0.1 to 0.5 µM. For `C[C@H]1C[C@@]2(CCN1Cc1cn(CCS(C)(=O)=O)nn1)OCC(O)c1cc(Cl)sc12` (stereo partly drawn) [Compound 823] the value was 0.1 to 0.5 µM; for `C[C@H]1C[C@@]2(CCN1Cc1ccc(NS(=O)(=O)C3CC3)nc1)OCC(O)c1cc(Cl)sc12` (stereo partly drawn) [Compound 824], < 0.1 µM; for `C[C@H]1C[C@@]2(CCN1Cc1cnn(CCS(C)(=O)=O)c1)OC[C@](O)(C(F)F)c1cc(Cl)sc12` [Compound 827, (2′S,4S,7R)-2-chloro-4-(difluoromethyl)-2′-methyl-1′-[[1-(2-methylsulfonylethyl)pyrazol-4-yl]methyl]spiro[5H-thieno[2,3-c]pyran-7,4′-piperidine]-4-ol], < 0.1 µM.

For `C[C@H]1C[C@@]2(CCN1Cc1cn[nH]c1)OC[C@](O)(C(F)F)c1cc(Cl)sc12` [Compound 828, (2′S,4S,7R)-2-chloro-4-(difluoromethyl)-2′-methyl-1′-(1H-pyrazol-4-ylmethyl)spiro[5H-thieno[2,3-c]pyran-7,4′-piperidine]-4-ol], the IC50 was < 0.1 µM. The value for `C[C@H]1C[C@@]2(CCN1Cc1cnc(NC(C)(C)CO)nc1)OC[C@](O)(C(F)F)c1cc(Cl)sc12` [Compound 830] was < 0.1 µM; that for `C[C@H]1C[C@@]2(CCN1Cc1cnn(C)c1)OC[C@](O)(C(F)F)c1cc(Cl)sc12` [Compound 831] was < 0.1 µM; that for `C[C@H]1C[C@@]2(CCN1Cc1cn(CCS(C)(=O)=O)nn1)OC[C@](O)(C(F)F)c1cc(Cl)sc12` [Compound 832] was < 0.1 µM. For `C[C@H]1C[C@@]2(CCN1Cc1cnn(CC(C)(CO)CO)c1)OC[C@](O)(C(F)F)c1cc(Cl)sc12` [Compound 833] the value was < 0.1 µM; for `C[C@H]1C[C@@]2(CCN1Cc1cnn(CCS(C)(=O)=O)c1)OC[C@@](O)(C(F)F)c1cc(Cl)sc12` [Compound 834], < 0.1 µM; for `CO[C@]1(C(F)F)CO[C@@]2(CCN(Cc3cnn(CCS(C)(=O)=O)c3)[C@@H](C)C2)c2sc(Cl)cc21` [Compound 835], < 0.1 µM. For `C[C@H]1C[C@@]2(CCN1Cc1cn(CC(O)C(C)(C)O)nn1)OC[C@@](O)(C(F)F)c1cc(Cl)sc12` (stereo partly drawn) [Compound 836, 1-[4-[[(2′S,4R,7R)-2-chloro-4-(difluoromethyl)-4-hydroxy-2′-methyl-spiro[5H-thieno[2,3-c]pyran-7,4′-piperidine]-1′-yl]methyl]triazol-1-yl]-3-methyl-butane-2,3-diol] the value was < 0.1 µM; for `CC(O)Cn1cc(CN2CC[C@]3(C[C@@H]2C)OC[C@](O)(C(F)F)c2cc(Cl)sc23)nn1` (stereo partly drawn) [Compound 837], < 0.1 µM; for `C[C@H]1C[C@@]2(CCN1Cc1cn(CC(C)(C)CO)nn1)OC[C@](O)(C(F)F)c1cc(Cl)sc12` [Compound 838], 0.5 to 1 µM. On to `C[C@H]1C[C@@]2(CCN1Cc1cn(CCCS(C)(=O)=O)nn1)OC[C@](O)(C(F)F)c1cc(Cl)sc12` [Compound 839], for which the IC50 is < 0.1 µM. The value for `C[C@H]1C[C@@]2(CCN1Cc1cn(CC(C)(CO)CO)nn1)OC[C@](O)(C(F)F)c1cc(Cl)sc12` [Compound 840] was < 0.1 µM. The value for `C[C@H]1C[C@@]2(CCN1Cc1cn(C3CCOCC3)nn1)OC[C@](O)(C(F)F)c1cc(Cl)sc12` [Compound 841] was < 0.1 µM; that for `CCOC1CO[C@@]2(CCN(Cc3cnn(CCS(C)(=O)=O)c3)[C@@H](C)C2)c2sc(Cl)cc21` (stereo partly drawn) [Compound 844] was 0.1 to 0.5 µM; that for `CC(C)OC1CO[C@@]2(CCN(Cc3cnn(CCS(C)(=O)=O)c3)[C@@H](C)C2)c2sc(Cl)cc21` (stereo partly drawn) [Compound 845] was 0.1 to 0.5 µM. For `[2H]C([2H])([2H])OC1CO[C@@]2(CCN(Cc3cnn(CCS(C)(=O)=O)c3)[C@@H](C)C2)c2sc(Cl)cc21` (stereo partly drawn) [Compound 846] the value was < 0.1 µM; for `CC(=O)OC1CO[C@@]2(CCN(Cc3cnn(CCS(C)(=O)=O)c3)[C@@H](C)C2)c2sc(Cl)cc21` (stereo partly drawn) [Compound 847, [(2′S, 7R)-2-chloro-2′-methyl-1′-[[1-(2-methylsulfonylethyl)pyrazol-4-yl]methyl]spiro[4,5-dihydrothieno[2,3-c]pyran-7,4′-piperidine]-4-yl]acetate], < 0.1 µM; for `C[C@H]1C[C@@]2(CCN1Cc1cnn(C)c1)OCC(C)(O)c1cc(Cl)sc12` (stereo partly drawn) [Compound 848, (2′S, 7R)-2-chloro-2′,4-dimethyl-1′-[(1-methylpyrazol-4-yl)methyl]spiro[5H-thieno[2,3-c]pyran-7,4′-piperidine]-4-ol], < 0.1 µM. In the case of `C[C@H]1C[C@@]2(CCN1Cc1cnn(C)c1)OCC(O)(c1ccccc1)c1cc(Cl)sc12` (stereo partly drawn) [Compound 849, (2′S,7R)-2-chloro-2′-methyl-1′-[(1-methylpyrazol-4-yl)methyl]-4-phenyl-spiro[5H-thieno[2,3-c]pyran-7,4′-piperidine]-4-ol], the IC50 lay within 0.1 to 0.5 µM.

As to `C[C@H]1C[C@@]2(CCN1Cc1cnn(C)c1)OCC(O)(c1ccccc1)c1cc(Cl)sc12` (stereo partly drawn) [Compound 850, (2′S,7R)-2-chloro-2′-methyl-1′-[(1-methylpyrazol-4-yl)methyl]-4-phenyl-spiro[5H-thieno[2,3-c]pyran-7,4′-piperidine]-4-ol], the IC50 is 0.1 to 0.5 µM. For `C[C@H]1C[C@@]2(CCN1Cc1cnn(CCS(C)(=O)=O)c1)OCC(O)(C(F)(F)F)c1cc(Cl)sc12` (stereo partly drawn) [Compound 852, (2′S,7R)-2-chloro-2′-methyl-1′-[[1-(2-methylsulfonylethyl)pyrazol-4-yl]methyl]-4-(trifluoromethyl)spiro[5H-thieno[2,3-c]pyran-7,4′-piperidine]-4-ol] the value was < 0.1 µM; for `C[C@H]1C[C@@]2(CCN1Cc1cnn(CCS(C)(=O)=O)c1)OCC(N1C(=O)c3ccccc3C1=O)c1cc(Cl)sc12` (stereo partly drawn) [Compound 853, 2-[(2′S, 7R)-2-chloro-2′-methyl-1′-[[1-(2-methylsulfonylethyl)pyrazol-4-yl]methyl]spiro[4,5-dihydrothieno[2,3-c]pyran-7,4′-piperidine]-4-yl]isoindoline-1,3-dione], 0.1 to 0.5 µM; for `C[C@H]1C[C@@]2(CCN1Cc1cnn(CCS(C)(=O)=O)c1)OCC(N)c1cc(Cl)sc12` (stereo partly drawn) [Compound 854, (2′S, 7R)-2-chloro-2′-methyl-1′-[[1-(2-methylsulfonylethyl)pyrazol-4-yl]methyl]spiro[4,5-dihydrothieno[2,3-c]pyran-7,4′-piperidine]-4-amine], < 0.1 µM.

On to `CC(=O)NC1CO[C@@]2(CCN(Cc3cnn(CCS(C)(=O)=O)c3)[C@@H](C)C2)c2sc(Cl)cc21` (stereo partly drawn) [Compound 855, N-[(2′S, 7R)-2-chloro-2′-methyl-1′-[[1-(2-methylsulfonylethyl)pyrazol-4-yl]methyl]spiro[4,5-dihydrothieno[2,3-c]pyran-7,4′-piperidine]-4-yl]acetamide], for which the IC50 was < 0.1 µM. As to `C[C@H]1C[C@@]2(CCN1Cc1cnn(CCS(C)(=O)=O)c1)OCC(C#N)c1cc(Cl)sc12` (stereo partly drawn) [Compound 856, (2′S, 7R)-2-chloro-2′-methyl-1′-[[1-(2-methylsulfonylethyl)pyrazol-4-yl]methyl]spiro[4,5-dihydrothieno[2,3-c]pyran-7,4′-piperidine]-4-carbonitrile], the IC50 was < 0.1 µM. The value for `CC(=O)N(C)C1CO[C@@]2(CCN(Cc3cnn(CCS(C)(=O)=O)c3)[C@@H](C)C2)c2sc(Cl)cc21` (stereo partly drawn) [Compound 857, N-[(2′S, 7R)-2-chloro-2′-methyl-1′-[[1-(2-methylsulfonylethyl)pyrazol-4-yl]methyl]spiro[4,5-dihydrothieno[2,3-c]pyran-7,4′-piperidine]-4-yl]-N-methyl-acetamide] was < 0.1 µM. For `Cc1c(Cl)sc2c1C(O)CO[C@@]21CCN(Cc2cnn(CCS(C)(=O)=O)c2)[C@@H](C)C1` (stereo partly drawn) [Compound 858, (2′S, 7R)-2-chloro-2′,3-dimethyl-1′-[[1-(2-methylsulfonylethyl)pyrazol-4-yl]methyl]spiro[4,5-dihydrothieno[2,3-c]pyran-7,4′-piperidine]-4-ol] the value was < 0.1 µM.

Turning to `C[C@H]1C[C@@]2(CCN1Cc1cnn(CCS(C)(=O)=O)c1)OCC(O)c1c2sc(Cl)c1Cl` (stereo partly drawn) [Compound 860, (2′S, 7R)-2,3-dichloro-2′-methyl-1′-[[1-(2-methylsulfonylethyl)pyrazol-4-yl]methyl]spiro[4,5-dihydrothieno[2,3-c]pyran-7,4′-piperidine]-4-ol], the IC50 was < 0.1 µM. For `C[C@H]1C[C@@]2(CCN1Cc1cnn(CCS(C)(=O)=O)c1)OCC(O)c1c2sc(Cl)c1Cl` (stereo partly drawn) [Compound 861, (2S,4R)-2′,3′-dichloro-2-methyl-1-((1-(2-(methylsulfonyl)ethyl)-1H-pyrazol-4-yl)methyl)-4′l3-spiro[piperidine-4,7′-thieno[3,2-d]pyran]-4′(5′H)-ol] the value was 0.1 to 0.5 µM.
